Laboratory results: patent US4091006A, “Esters of 3-hydroxyindone compounds” (priority 1975, dated 1978)

system: egg of the two-spotted mite; assay: Mite Ovicide Test; assay type: in vivo, Tetranychus urticae (Koch); parameters: key to Mite Ova rating: 1: no mortality; 3: an approximately 50% mortality; 5: 100% mortality; settings: spray on eggs, 4 days
Excerpt: (§1) The test procedures were as follows:
The plants were allowed to dry thoroughly.
(§2) Compositions were rated on the basis of percent kill with a rating of 1 indicating no mortality; 3 signifying an approximately 50% mortality and 5 indicating 100% mortality at the indicated dosage.

Compound | Mite Ova rating
Cc1cc(C)c(C2=C(OC(=O)N3CCCCC3)c3ccccc3C2=O)c(C)c1 [2-(2',4',6'-Trimethylphenyl)-3-(piperdinocarbonyloxy)indone] | 3 (an approximately 50% mortality)
CCCCN(C)C(=O)OC1=C(c2c(C)cc(C)cc2C)C(=O)c2ccccc21 [2-(2',4',6'-Trimethylphenyl)-3-(N-butyl-N-methylcarbamoyloxy)indone] | 1
COc1cc(C)c(C)c(C)c1C1=C(OC(=O)C(C)(C)C)c2ccccc2C1=O [3-(Pivaloyloxy)-2-(6'-methoxy-2',3',4'-trimethylphenyl)indone] | 1
COc1cccc(OC)c1C(=O)OC1=C(c2c(Cl)cccc2Cl)C(=O)c2ccccc21 [3-(2,6-Dimethoxybenzoyloxy)-2-(2',6'-dichlorophenyl)indone] | 1
CSCC(=O)OC1=C(c2c(C)cc(C)cc2C)C(=O)c2ccccc21 [2-(2',4',6'-Trimethylphenyl)-3-(methylthioacetoxy)indone] | 5 (100% mortality)
O=C(OC1=C(c2c(Cl)cccc2Cl)C(=O)c2ccccc21)c1ccc([N+](=O)[O-])cc1 [3-(4-Nitrobenzoyloxy)-2-(2',6'-dichlorophenyl)indone] | 5 (100% mortality)
Cc1cc(C)c(C2=C(OC(=O)c3ccc(Cl)c(Cl)c3)c3ccccc3C2=O)c(C)c1 [3-(3,4-Dichlorobenzoyloxy)-2-(2',4',6'-trimethylphenyl)indone] | 5 (100% mortality)
Cc1cc(C)c(C2=C(OC(=O)N3CCOCC3)c3ccccc3C2=O)c(C)c1 [2-(2',4',6'-Trimethylphenyl)-3-(4-(morpholino)carbonyloxy)indone] | 5 (100% mortality)
Cc1cc(C)c(C2=C(OC(=O)c3cccnc3)c3ccccc3C2=O)c(C)c1 [2-(2',4',6'-Trimethylphenyl)-3-(3-pyridinecarbonyloxy)indone] | 5 (100% mortality)
Cc1cc(C)c(C2=C(OC(=O)c3c(C)cccc3C)c3ccccc3C2=O)c(C)c1 [3-(2,6-Dimethylbenzoyloxy)-2-(2',4',6'-trimethylphenyl)indone] | 1
Cc1ccc(C(=O)OC2=C(c3c(Cl)cccc3Cl)C(=O)c3ccccc32)c(C)c1 [3-(2,4-Dimethylbenzoyloxy)-2-(2',6'-dichlorophenyl)indone] | 3 (an approximately 50% mortality)
COc1cc(C)c(C2=C(OC(=O)C(C)(C)C)c3ccccc3C2=O)c(C)c1 [2-(2',6'-Dimethyl-4'-methoxyphenyl)-3-(pivaloyloxy)indone] | 3 (an approximately 50% mortality)
CC(C)(C)C(=O)OC1=C(c2ccc(Cl)cc2)C(=O)c2ccccc21 [2-(4'-Chlorophenyl)-3-(pivaloyloxy)indone] | 1
COc1ccc(C(=O)OC2=C(c3c(Cl)cccc3Cl)C(=O)c3ccccc32)cc1 [3-(4-Methoxybenzoyloxy)-2-(2',6'-dichlorophenyl)indone] | 5 (100% mortality)
Cc1cc(C)c(C2=C(OC(=O)c3ccccc3C)c3ccccc3C2=O)c(C)c1 [3-(2-Methylbenzoyloxy)-2-(2',4',6'-trimethylphenyl)indone] | 5 (100% mortality)
2-(2',6'-Dichlorophenyl)-4(7)-methyl-3-(pivaloxyloxy)indone | 3 (an approximately 50% mortality)

system: adults and nymphal stages of the two-spotted mite; assay: Mite Foliage Spray Test; assay type: in vivo, Tetranychus urticae (Koch); parameters: key: 1: no mortality; 3: an approximately 50% mortality; 5: 100% mortality; settings: 4 days
Excerpt: as §1, §2

Compound | Mite Adult rating
Cc1cc(C)c(C2=C(OC(=O)N3CCCCC3)c3ccccc3C2=O)c(C)c1 [2-(2',4',6'-Trimethylphenyl)-3-(piperdinocarbonyloxy)indone] | 1
CCCCN(C)C(=O)OC1=C(c2c(C)cc(C)cc2C)C(=O)c2ccccc21 [2-(2',4',6'-Trimethylphenyl)-3-(N-butyl-N-methylcarbamoyloxy)indone] | 1
COc1cc(C)c(C)c(C)c1C1=C(OC(=O)C(C)(C)C)c2ccccc2C1=O [3-(Pivaloyloxy)-2-(6'-methoxy-2',3',4'-trimethylphenyl)indone] | 1
COc1cccc(OC)c1C(=O)OC1=C(c2c(Cl)cccc2Cl)C(=O)c2ccccc21 [3-(2,6-Dimethoxybenzoyloxy)-2-(2',6'-dichlorophenyl)indone] | 1
CSCC(=O)OC1=C(c2c(C)cc(C)cc2C)C(=O)c2ccccc21 [2-(2',4',6'-Trimethylphenyl)-3-(methylthioacetoxy)indone] | 5 (100% mortality)
O=C(OC1=C(c2c(Cl)cccc2Cl)C(=O)c2ccccc21)c1ccc([N+](=O)[O-])cc1 [3-(4-Nitrobenzoyloxy)-2-(2',6'-dichlorophenyl)indone] | 5 (100% mortality)
Cc1cc(C)c(C2=C(OC(=O)c3ccc(Cl)c(Cl)c3)c3ccccc3C2=O)c(C)c1 [3-(3,4-Dichlorobenzoyloxy)-2-(2',4',6'-trimethylphenyl)indone] | 5 (100% mortality)
Cc1cc(C)c(C2=C(OC(=O)N3CCOCC3)c3ccccc3C2=O)c(C)c1 [2-(2',4',6'-Trimethylphenyl)-3-(4-(morpholino)carbonyloxy)indone] | 3 (an approximately 50% mortality)
Cc1cc(C)c(C2=C(OC(=O)c3cccnc3)c3ccccc3C2=O)c(C)c1 [2-(2',4',6'-Trimethylphenyl)-3-(3-pyridinecarbonyloxy)indone] | 5 (100% mortality)
Cc1cc(C)c(C2=C(OC(=O)c3c(C)cccc3C)c3ccccc3C2=O)c(C)c1 [3-(2,6-Dimethylbenzoyloxy)-2-(2',4',6'-trimethylphenyl)indone] | 1
Cc1ccc(C(=O)OC2=C(c3c(Cl)cccc3Cl)C(=O)c3ccccc32)c(C)c1 [3-(2,4-Dimethylbenzoyloxy)-2-(2',6'-dichlorophenyl)indone] | 1
COc1cc(C)c(C2=C(OC(=O)C(C)(C)C)c3ccccc3C2=O)c(C)c1 [2-(2',6'-Dimethyl-4'-methoxyphenyl)-3-(pivaloyloxy)indone] | 3 (an approximately 50% mortality)
CC(C)(C)C(=O)OC1=C(c2ccc(Cl)cc2)C(=O)c2ccccc21 [2-(4'-Chlorophenyl)-3-(pivaloyloxy)indone] | 1
COc1ccc(C(=O)OC2=C(c3c(Cl)cccc3Cl)C(=O)c3ccccc32)cc1 [3-(4-Methoxybenzoyloxy)-2-(2',6'-dichlorophenyl)indone] | 5 (100% mortality)
Cc1cc(C)c(C2=C(OC(=O)c3ccccc3C)c3ccccc3C2=O)c(C)c1 [3-(2-Methylbenzoyloxy)-2-(2',4',6'-trimethylphenyl)indone] | 5 (100% mortality)
2-(2',6'-Dichlorophenyl)-4(7)-methyl-3-(pivaloxyloxy)indone | 1
CC(C)c1ccccc1C1=C(OC(=O)C(C)(C)C)c2ccccc2C1=O [2-(2'-isopropylphenyl)-3-pivaloyloxyindone] | 1

system: Perennial rye grass, crabgrass, red root pigweed, mustard; assay: Preliminary Herbicide Seed Germination Test; settings: rating/maximum 15: 100 ppm only, crabgrass omitted, each rated 1 (no injury) to 5 (no seedlings emerged)

Compound | Herbicide (total preemergence rating)
COc1cccc(OC)c1C(=O)OC1=C(c2c(Cl)cccc2Cl)C(=O)c2ccccc21 [3-(2,6-Dimethoxybenzoyloxy)-2-(2',6'-dichlorophenyl)indone] | 12/15

same assay, conditions: rating/maximum 20: 100 ppm only, four species, each rated 1 (no injury) to 5 (no seedlings emerged)

Compound | Herbicide (total preemergence rating)
Cc1cc(C)c(C2=C(OC(=O)N3CCCCC3)c3ccccc3C2=O)c(C)c1 [2-(2',4',6'-Trimethylphenyl)-3-(piperdinocarbonyloxy)indone] | 4/20
CCCCN(C)C(=O)OC1=C(c2c(C)cc(C)cc2C)C(=O)c2ccccc21 [2-(2',4',6'-Trimethylphenyl)-3-(N-butyl-N-methylcarbamoyloxy)indone] | 4/20
CSCC(=O)OC1=C(c2c(C)cc(C)cc2C)C(=O)c2ccccc21 [2-(2',4',6'-Trimethylphenyl)-3-(methylthioacetoxy)indone] | 19/20
Cc1cc(C)c(C2=C(OC(=O)N3CCOCC3)c3ccccc3C2=O)c(C)c1 [2-(2',4',6'-Trimethylphenyl)-3-(4-(morpholino)carbonyloxy)indone] | 4/20
Cc1cc(C)c(C2=C(OC(=O)c3cccnc3)c3ccccc3C2=O)c(C)c1 [2-(2',4',6'-Trimethylphenyl)-3-(3-pyridinecarbonyloxy)indone] | 18/20
Cc1cc(C)c(C2=C(OC(=O)c3c(C)cccc3C)c3ccccc3C2=O)c(C)c1 [3-(2,6-Dimethylbenzoyloxy)-2-(2',4',6'-trimethylphenyl)indone] | 4/20
Cc1ccc(C(=O)OC2=C(c3c(Cl)cccc3Cl)C(=O)c3ccccc32)c(C)c1 [3-(2,4-Dimethylbenzoyloxy)-2-(2',6'-dichlorophenyl)indone] | 5/20
CC(C)(C)C(=O)OC1=C(c2ccc(Cl)cc2)C(=O)c2ccccc21 [2-(4'-Chlorophenyl)-3-(pivaloyloxy)indone] | 4/20
CC(C)c1ccccc1C1=C(OC(=O)C(C)(C)C)c2ccccc2C1=O [2-(2'-isopropylphenyl)-3-pivaloyloxyindone] | 4/20

same assay, conditions: rating/maximum 30: 100 and 1000 ppm, crabgrass omitted, each rated 1 (no injury) to 5 (no seedlings emerged)

Compound | Herbicide (total preemergence rating)
O=C(OC1=C(c2c(Cl)cccc2Cl)C(=O)c2ccccc21)c1ccc([N+](=O)[O-])cc1 [3-(4-Nitrobenzoyloxy)-2-(2',6'-dichlorophenyl)indone] | 25/30
COc1ccc(C(=O)OC2=C(c3c(Cl)cccc3Cl)C(=O)c3ccccc32)cc1 [3-(4-Methoxybenzoyloxy)-2-(2',6'-dichlorophenyl)indone] | 22/30
Cc1cc(C)c(C2=C(OC(=O)c3ccccc3C)c3ccccc3C2=O)c(C)c1 [3-(2-Methylbenzoyloxy)-2-(2',4',6'-trimethylphenyl)indone] | 19/30

same assay, conditions: rating/maximum 40: 100 and 1000 ppm, four species, each rated 1 (no injury) to 5 (no seedlings emerged), 10-12 days

Compound | Herbicide (total preemergence rating)
COc1cc(C)c(C)c(C)c1C1=C(OC(=O)C(C)(C)C)c2ccccc2C1=O [3-(Pivaloyloxy)-2-(6'-methoxy-2',3',4'-trimethylphenyl)indone] | 16/40
Cc1cc(C)c(C2=C(OC(=O)c3ccc(Cl)c(Cl)c3)c3ccccc3C2=O)c(C)c1 [3-(3,4-Dichlorobenzoyloxy)-2-(2',4',6'-trimethylphenyl)indone] | 32/40
COc1cc(C)c(C2=C(OC(=O)C(C)(C)C)c3ccccc3C2=O)c(C)c1 [2-(2',6'-Dimethyl-4'-methoxyphenyl)-3-(pivaloyloxy)indone] | 24/40
2-(2',6'-Dichlorophenyl)-4(7)-methyl-3-(pivaloxyloxy)indone | 20/40
